Measured values: ChEMBL document CHEMBL4811270, “Nitrile-based peptoids as cysteine protease inhibitors” (Bioorg Med Chem, 2021)
pKi: −log10 of the molar value.

Experiments:
Procathepsin L [1] = molecular target: T1, Procathepsin L (Homo sapiens, UniProt P07711); assay: Inhibition of recombinant human liver CatL using Z-FR-AMC as substrate by fluorescence assay
Target sequence in this assay (P07711 whole entry): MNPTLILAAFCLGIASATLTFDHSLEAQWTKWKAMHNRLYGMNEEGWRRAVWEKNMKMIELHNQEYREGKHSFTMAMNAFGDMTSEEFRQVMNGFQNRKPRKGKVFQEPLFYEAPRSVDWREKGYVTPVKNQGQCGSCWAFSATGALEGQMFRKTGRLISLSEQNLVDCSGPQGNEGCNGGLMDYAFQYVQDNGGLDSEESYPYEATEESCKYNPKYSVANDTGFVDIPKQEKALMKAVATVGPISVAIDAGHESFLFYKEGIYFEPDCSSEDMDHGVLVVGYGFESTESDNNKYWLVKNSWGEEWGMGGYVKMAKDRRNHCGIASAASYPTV

Cathepsin S [2] = molecular target: T2, Cathepsin S (Homo sapiens, UniProt P25774); assay: Inhibition of recombinant human liver CatS using Z-FR-AMC as substrate by fluorescence assay
Target sequence in this assay (P25774 whole entry): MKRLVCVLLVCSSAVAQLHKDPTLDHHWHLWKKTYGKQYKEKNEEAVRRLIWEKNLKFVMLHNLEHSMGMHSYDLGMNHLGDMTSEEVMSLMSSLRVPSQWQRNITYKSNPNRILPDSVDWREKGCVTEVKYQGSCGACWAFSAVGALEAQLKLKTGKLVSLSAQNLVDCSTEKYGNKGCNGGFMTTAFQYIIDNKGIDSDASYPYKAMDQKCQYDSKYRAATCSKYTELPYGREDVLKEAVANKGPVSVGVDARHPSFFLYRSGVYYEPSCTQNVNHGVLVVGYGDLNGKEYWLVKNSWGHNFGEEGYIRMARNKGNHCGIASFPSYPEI

[3] = molecular target: Cruzipain (Trypanosoma cruzi) (UniProt P25779); assay: Inhibition of Trypanosoma cruzi cruzain at 10 uM using Z-FR-AMC as substrate by fluorescence assay relative to control
Chain of Cruzipain (Trypanosoma cruzi) (P25779 123-467 limits assumed): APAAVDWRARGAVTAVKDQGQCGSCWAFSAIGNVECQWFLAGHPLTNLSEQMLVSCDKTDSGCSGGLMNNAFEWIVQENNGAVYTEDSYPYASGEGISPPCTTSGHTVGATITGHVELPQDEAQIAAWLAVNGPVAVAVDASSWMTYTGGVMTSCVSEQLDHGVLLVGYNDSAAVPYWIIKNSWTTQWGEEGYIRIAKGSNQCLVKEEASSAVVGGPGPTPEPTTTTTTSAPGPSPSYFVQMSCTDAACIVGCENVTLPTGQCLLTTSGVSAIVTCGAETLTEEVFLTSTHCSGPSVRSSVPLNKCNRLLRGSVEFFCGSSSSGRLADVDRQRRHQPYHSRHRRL

Cathepsin B [4] = molecular target: T3, Cathepsin B (Homo sapiens, UniProt P07858); assay: Inhibition of recombinant human liver CatB at 10 uM using Z-FR-AMC as substrate by fluorescence assay relative to control
[5] = molecular target: T4, Cathepsin K (Homo sapiens) (UniProt P43235); assay: Inhibition of recombinant human liver CatK at 10 uM using Z-FR-AMC as substrate by fluorescence assay relative to control
T4 sequence (whole entry): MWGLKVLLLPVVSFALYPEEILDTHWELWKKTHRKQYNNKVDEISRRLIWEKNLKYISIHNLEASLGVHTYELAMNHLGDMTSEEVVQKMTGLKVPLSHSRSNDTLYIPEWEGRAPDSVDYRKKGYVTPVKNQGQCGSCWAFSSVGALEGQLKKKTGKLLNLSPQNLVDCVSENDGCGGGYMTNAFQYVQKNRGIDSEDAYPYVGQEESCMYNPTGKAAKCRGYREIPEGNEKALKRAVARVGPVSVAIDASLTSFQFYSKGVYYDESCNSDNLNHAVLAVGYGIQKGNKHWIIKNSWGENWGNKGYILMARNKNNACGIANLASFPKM

Cruzipain = Cruzipain (Trypanosoma cruzi, UniProt P25779); assay: Inhibition of Trypanosoma cruzi cruzain using Z-FR-AMC as substrate by fluorescence assay
Chain of Cruzipain (P25779 whole entry): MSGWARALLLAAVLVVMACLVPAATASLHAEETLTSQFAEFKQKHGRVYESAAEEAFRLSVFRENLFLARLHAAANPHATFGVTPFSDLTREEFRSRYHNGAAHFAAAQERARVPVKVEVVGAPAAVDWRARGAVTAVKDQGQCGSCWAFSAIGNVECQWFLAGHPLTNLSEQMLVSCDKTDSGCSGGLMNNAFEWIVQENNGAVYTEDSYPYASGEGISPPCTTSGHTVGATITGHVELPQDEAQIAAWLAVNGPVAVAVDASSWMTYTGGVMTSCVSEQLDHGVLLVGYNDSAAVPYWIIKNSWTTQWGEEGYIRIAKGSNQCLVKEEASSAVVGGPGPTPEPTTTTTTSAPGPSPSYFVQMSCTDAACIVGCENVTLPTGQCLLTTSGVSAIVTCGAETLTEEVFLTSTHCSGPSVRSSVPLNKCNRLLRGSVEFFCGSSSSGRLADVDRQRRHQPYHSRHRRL

Cathepsin B [6] = molecular target: T3, Cathepsin B; assay: Inhibition of recombinant human liver CatB using Z-FR-AMC as substrate by fluorescence assay
Procathepsin L [7] = molecular target: T1, Procathepsin L; assay: Inhibition of recombinant human liver CatL at 10 uM using Z-FR-AMC as substrate by fluorescence assay relative to control
Target sequence in this assay (P07711 114-333 limits assumed): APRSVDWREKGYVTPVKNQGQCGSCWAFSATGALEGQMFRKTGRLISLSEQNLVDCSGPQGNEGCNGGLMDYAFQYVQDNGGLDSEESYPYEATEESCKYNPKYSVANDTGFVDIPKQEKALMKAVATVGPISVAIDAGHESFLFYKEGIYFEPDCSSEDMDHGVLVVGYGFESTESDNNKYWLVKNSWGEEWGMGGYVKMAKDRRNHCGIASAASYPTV

Cathepsin S [8] = molecular target: T2, Cathepsin S; assay: Inhibition of recombinant human liver CatS at 10 uM using Z-FR-AMC as substrate by fluorescence assay relative to control
Target sequence in this assay (P25774 115-331 limits assumed): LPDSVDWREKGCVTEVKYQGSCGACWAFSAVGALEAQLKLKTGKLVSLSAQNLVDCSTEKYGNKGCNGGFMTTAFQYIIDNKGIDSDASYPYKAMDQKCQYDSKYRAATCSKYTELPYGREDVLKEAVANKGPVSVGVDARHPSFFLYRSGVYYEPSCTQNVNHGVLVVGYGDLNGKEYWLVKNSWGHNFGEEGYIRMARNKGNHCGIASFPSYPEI

Cathepsin K = molecular target: T5, Cathepsin K (Homo sapiens, UniProt P43235); assay: Inhibition of recombinant human liver CatK using Z-FR-AMC as substrate by fluorescence assay
T5 sequence (P43235 whole entry): T4 sequence (whole entry)

pKi (Procathepsin L [1]) | pKi (Cathepsin S [2]) | inhibition [3] [%] | inhibition (Cathepsin B [4]) [%] | inhibition [5] [%] | pKi (Cruzipain) | pKi (Cathepsin B [6]) | inhibition (Procathepsin L [7]) [%] | inhibition (Cathepsin S [8]) [%] | pKi (Cathepsin K) | Structure (SMILES)
5.20 | 5.00 | 34 | 87 | > 95 |  |  |  |  |  | N#CCNC(=O)CN(Cc1ccccc1)C(=O)c1cccc(I)c1
5.00 | 5.20 |  | 66 | 86 | 5.50 |  |  |  |  | N#CCNC(=O)CN(Cc1ccccc1)C(=O)c1ccc(-c2ccccc2)cc1
 |  | > 95 | 93 | 58 |  |  | 88 | 84 |  | Cn1nc(C(C)(C)C)cc1C(=O)N(CC(=O)NCC#N)Cc1ccccc1
 | 5.40 |  | 78 |  | 5.00 |  | 68 |  | 5.00 | COc1ccc(-c2ccc(C(=O)N(CC(=O)NC3(C#N)CC3)Cc3ccccc3)cc2)cc1
5.50 |  | 87 | 80 |  |  |  |  | 84 | 6.50 | Cn1nc(C(C)(C)C)cc1C(=O)N(CC(=O)N[C@H](C#N)Cc1ccccc1)Cc1ccccc1

Continued, compound first:

Structure (SMILES) | pKi (Procathepsin L [1]) | pKi (Cathepsin S [2]) | inhibition [3] [%] | inhibition (Cathepsin B [4]) [%] | inhibition [5] [%] | pKi (Cruzipain) | pKi (Cathepsin B [6]) | inhibition (Procathepsin L [7]) [%] | inhibition (Cathepsin S [8]) [%] | pKi (Cathepsin K)
Cn1nc(C(C)(C)C)cc1C(=O)N(CC(=O)NCC#N)Cc1cccc(Cl)c1 |  |  |  |  | > 95 | 6.80 | 5.10 | > 95 | > 95 | 
N#CC1(NC(=O)CN(Cc2ccccc2)C(=O)c2ccc(-c3ccccc3)cc2)CC1 |  |  |  |  | > 95 | 6.60 | 5.50 | > 95 | 89 | 
COc1ccc(-c2ccc(C(=O)N(CC(=O)NCC#N)Cc3ccccc3)cc2)cc1 |  | 6.10 |  | 83 |  | 5.30 |  | > 95 |  | 5.60
N#CC1(NC(=O)[C@H](Cc2ccccc2)NC(=O)c2ccccc2)CC1 |  |  |  |  |  | 6.70 | 5.10 |  |  | 
N#CC1(NC(=O)CN(Cc2ccccc2)C(=O)c2ccccc2)CC1 |  | 5.30 |  | 91 |  | 5.10 |  | 82 |  | 6.40
Cn1nc(C(C)(C)C)cc1C(=O)N(CC(=O)NC1(C#N)CC1)Cc1ccccc1 |  |  |  |  | 54 | 5.20 | 5.40 | 85 | > 95 | 
N#CCNC(=O)CN(Cc1ccccc1)C(=O)c1ccccc1 | 6.20 | 5.30 |  | 85 | > 95 | 5.20 |  |  |  | 
CC(C)(C#N)NC(=O)CN(Cc1ccccc1)C(=O)c1ccccc1 |  | 5.10 |  | 90 |  | 5.20 |  | > 95 |  | 6.60
N#CC1(NC(=O)CN(Cc2ccccc2)C(=O)Cc2ccccc2)CC1 |  |  |  | > 95 | 58 | 5.60 |  | 87 | > 95 | 
N#CCNC(=O)CN(Cc1ccccc1)S(=O)(=O)c1cccc(Cl)c1 | 5.60 | 5.70 | 87 | > 95 | 68 |  |  |  |  | 
